Patent US20150344535A1, “NEUROTROPHIN-TYROSINE KINASE RECEPTOR SIGNALING” (THE UNIVERSITY OF QUEENSLAND, priority 2012, published 2015)

Tests used:
TrkB = molecular target: T1, TrkB (Mus musculus, UniProt P15209); test: Biotinylated peptide pull down of TrkB from NSC-34 cells; assay type: binding; details: NSC-34 cell lysate, FIG. 4D
T1 construct: endogenous in cells; host or cells: NSC-34
Protocol: (§1) For peptide pull down assays, the biotinylated c29 or LC1 control peptides were incubated with protein A-sepharose beads or Dynabeads MyOne Streptavidin T1 (Invitrogen) overnight at 4° C. Cell lysates were then added to the peptide-protein A-sepharose complex or Dynabeads MyOne Streptavidin T1 and incubated for 3 hours at 4° C. Peptide-receptor complexes were washed extensively with RIPA lysis buffer and eluted by boiling in Laemmli sample buffer. For p75^NTR construct immunoprecipitations, HEK293 cells were treated with NGF at 50 ng/ml for 10 minutes 48 hours after transfection with 1 μg DNA per well. Cells were immediately harvested in ice-cold phosphate buffered saline (PBS) and washed twice, then lysed in 1 ml of lysis buffer. Cell lysates were pre-cleared in 75 μl (1:2) protein-G sepharose: PBS by rotation end-over-end for 2 hours at 4′C. Lysates were then incubated with 3-5 μg antibody, either mouse-anti-YFP/GFP (Roche) or rabbit-anti-human p75^NTR intracellular domain antibody (Promega), and rotated end-over-end for 2 hours at 4° C.
(§2) Immunoprecipitation was performed by the addition of 75 μl (1:2) protein-G sepharose: PBS and incubation end-over-end for 16 hours at 4° C. The immunoprecipitate was washed 4 times with 1 ml of PBS then eluted in 60 μl 2×LDS sample buffer. […]

p75^FL = test: Production of endogenous p75^CTF or p75^ICD fragments in p75^FL-transfected HEK293 cells; assay type: cell-based; details: vs untreated cells, data not shown
EGF receptor = molecular target: T2, EGF receptor (Homo sapiens, UniProt P00533); test: Biotinylated peptide pull down of EGF receptor; assay type: binding; details: lysate of transfected HEK293 cells, FIG. 4D
T2 construct: GFP; expressed in transfected cells; host or cells: HEK293
Protocol: as §1, §2

PC12 cells = test: PC12 cell viability / NGF withdrawal (acid phosphatase assay); assay type: cell-based
Protocol: To investigate the role of c29 peptide in NGF-withdrawal assays, NGF-containing medium in PC12 cultures was exchanged for NGF-free medium on day 3, and cells were treated with c29 or scrambled peptide and reduced NGF concentrations (1 ng or 10 ng/ml). Treated cells were cultured for 2 days and cell viability was determined via quantification of cytosolic acid phosphatase enzyme activity as described in (Yang et al., 1996).
Briefly, cells were grown in 96-well plates at densities of 5000 cells per well. The culture medium in treated cell assays was removed from and each well was washed once with 200 μl phosphate buffered saline (PBS, pH 7.2). To each well, 100 μl of sodium acetate and p-nitrophenyl phosphate buffer containing 0.1 M sodium acetate (pH 5.0), 0.1% Triton X-100, and 5 mM p-nitrophenyl phosphate was added. The plates were placed in a 37° C. incubator for 30 minutes. The reaction was stopped with the addition of […] of 1 N NaOH, and colour development absorbance was assayed at 405 nm using a microplate reader (POLARstar OPTIMA, USA). […] This background value was typically 0.03-0.1 absorbance units.

[1] = tested on: primary E13 motor neurons; test: Primary motor neuron survival and growth factor withdrawal; assay type: cell-based, mouse
Protocol: Briefly, pregnant mothers were sacrificed by cervical dislocation and the uterus removed by Caesarean section and placed in Neurobasal medium. Lumbar spinal cords were dissected from E13 embryos on ice. Batches of 2 or 3 spinal cords were incubated in 1 mL 0.05% trypsin-ETDA for 10 minutes at 37° C. in 15 mL tubes. To prevent further trypsinisation, 0.14 mg/mL trypsin inhibitor solution was added and the tissue centrifuged at 100×g for 7 minutes, without acceleration or deceleration. The supernatant was removed and the spinal cord tissue was resuspended in 1 mL of Neurobasal Medium (NB). In order to obtain a single cell suspension, each batch of 2-3 spinal cords was agitated manually for 2 minutes. The suspension was allowed to settle and the supernatant collected after being filtered through a 100 μm sieve. The remaining tissue was further triturated ˜8 times through a P200 pipette and filtered through a 100 μm sieve. The combined supernatants were then separated by centrifugation on a 5 ml cushion of 9% (vol/vol) OptiPrep® gradient in NB containing 2% B27 supplement for 45 min at 850×g, without acceleration or deceleration. To prevent toxicity following Optiprep® separation, the layer containing MNs was harvested into 10 mL of NB containing 10% HS, and the cell suspension was centrifuged at 900×g for 7 minutes at 24° C., without acceleration or deceleration. The supernatant was removed and the cell pellet was resuspended in 1 mL of NB medium.
The number of viable motor neurons was counted on a haemocytometer using 0.08% trypan blue and neurons plated in 4-well culture dishes at a density of 3,000 cells per well in 100 μL NB containing 10% HS. […] Primary motor neurons were maintained at 37° C. in a humidified atmosphere with 5% CO2 and culture medium was replaced at day 1 and 3. Phase contrast images of motor neurons were taken using an Olympus (6IX81) microscope after motor neurons were grown in vitro for up to 7 days.
To assess the effects of c29 peptide on motor neuronal survival in limiting growth factor concentrations, isolated spinal motor neurons were plated and treated with 0.01, 0.1 or 1.0 ng/ml of BDNF in the presence of 1 μm PTD4-linked c29 or scrambled peptide, and cultured for 5 days with the addition of fresh BDNF and peptide treatments on day 2 and 4. For growth factor-withdrawal assays, following initial plating in 1 ng/ml of BDNF, CNTF or GDNF, cultures were washed four times with serum-free Neurobasal (NB) medium, after which the medium was replaced with medium containing 1-0.01 ng/ml of BDNF, CNTF or GDNF and 1 μM PTD4-linked c29 or scrambled peptides, as indicated. For assays investigating the effect of c29 on NGF-mediated motor neuron death, cultures were grown in 1 ng/ml BDNF, CNTF or GDNF for 1 day, before being treated with 100 ng/ml 2.5S NGF in and 1 μM PTD4-linked c29 or scrambled peptide, as indicated. Motor neurons were counted on day 1, and to assess the effects of various treatments days 3 and 5 (4 separate 10×10 grid fields of each well per experiment).

T1 sequence (P15209 32-476 isoform P15209-2 limits assumed): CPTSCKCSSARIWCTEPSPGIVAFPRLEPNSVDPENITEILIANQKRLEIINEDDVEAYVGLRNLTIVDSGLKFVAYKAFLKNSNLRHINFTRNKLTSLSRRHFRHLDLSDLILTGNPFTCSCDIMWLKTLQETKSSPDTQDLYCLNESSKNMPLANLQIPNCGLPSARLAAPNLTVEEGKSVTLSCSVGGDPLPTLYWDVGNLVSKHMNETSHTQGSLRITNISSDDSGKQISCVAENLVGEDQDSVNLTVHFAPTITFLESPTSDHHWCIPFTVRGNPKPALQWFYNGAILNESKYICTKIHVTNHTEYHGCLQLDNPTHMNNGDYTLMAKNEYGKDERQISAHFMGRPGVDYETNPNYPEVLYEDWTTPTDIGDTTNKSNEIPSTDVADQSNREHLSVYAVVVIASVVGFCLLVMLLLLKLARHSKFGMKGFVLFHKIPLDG

## KRWNSCKQNKQGANSRPVNQTPPPEGEKL (c29- Fragment of p75ICD) [29 amino acid peptide of the p75NTR juxtamembrane Chopper domain; delivered to cells linked to PTD4 or disulfide-linked carrier]
TrkB
  pull down of endogenously expressed TrkB: able to pull down endogenously expressed TrkB
p75^FL
  rate of production of endogenous p75^CTF or p75^ICD fragments: did not differ significantly
EGF receptor
  pull down of EGF receptor: did not pull down
PC12 cells; 1 ng/ml NGF after differentiation in 100 ng/ml NGF
  survival rate of cells: significantly increased the survival rate
PC12 cells; absence of NGF
  cell survival: did not affect on cell survival
PC12 cells; medium lacking NGF
  basal PC12 cell growth and proliferation: no effect on basal PC12 cell growth and proliferation
[1]; 1 ng/ml BDNF plus NGF
  NGF-induced cell death of motor neurons: significantly protected from NGF-induced cell death
[1]; 10-fold lower BDNF, vs scrambled peptide
  neuronal survival after BDNF withdrawal: significantly increased neuronal survival
[1]; 10-fold lower CNTF or GDNF
  survival of motor neurons following CNTF or GDNF withdrawal: no effect on the survival of motor neurons
[1]; BDNF 0.01-1.0 ng/ml, after 5 days, vs control cultures
  motor neuron survival: increased survival
